Test: xn = mol fraction of the nth substance listed
Details: Liquid

CCCCCCCl [1-chlorohexane] + CCCCCCCC
mass density [kg/m3]
Details | x2 = 0 | x2 = 0.1016 | x2 = 0.1996 | x2 = 0.3153 | x2 = 0.3948 | x2 = 0.4862 | x2 = 0.5938 | x2 = 0.6966 | x2 = 0.794 | x2 = 0.9001
308.15 K, 39620 kPa | – | – | – | – | – | – | – | – | – | 735.19
318.15 K, 100 kPa | 854.58 | 834.04 | 814.96 | 793.28 | 778.92 | 762.93 | 744.78 | 728.11 | 712.89 | 696.93
318.15 K, 2130 kPa | 856.27 | 835.95 | 816.81 | 795.21 | 780.76 | 764.83 | 746.83 | 730.05 | 714.94 | 698.9
318.15 K, 4150 kPa | 858.19 | 837.89 | 818.74 | 797.18 | 782.71 | 766.77 | 748.78 | 732.01 | 716.9 | 700.85
318.15 K, 6180 kPa | 860.06 | 839.78 | 820.64 | 799.07 | 784.6 | 768.67 | 750.71 | 733.92 | 718.79 | 702.75
318.15 K, 8210 kPa | 861.91 | 841.62 | 822.49 | 800.94 | 786.48 | 770.55 | 752.56 | 735.77 | 720.67 | 704.6
318.15 K, 10230 kPa | 863.73 | 843.46 | 824.34 | 802.79 | 788.32 | 772.38 | 754.41 | 737.61 | 722.49 | 706.41
318.15 K, 11250 kPa | 864.62 | 844.35 | 825.23 | 803.67 | 789.21 | 773.28 | 755.31 | 738.5 | 723.39 | 707.3
318.15 K, 12260 kPa | 865.5 | 845.27 | 826.11 | 804.57 | 790.11 | 774.2 | 756.2 | 739.4 | 724.3 | 708.21
318.15 K, 14290 kPa | 867.28 | 847.01 | 827.89 | 806.35 | 791.88 | 775.94 | 757.98 | 741.15 | 726.04 | 709.95
318.15 K, 16310 kPa | 869 | 848.75 | 829.61 | 808.09 | 793.61 | 777.66 | 759.69 | 742.89 | 727.75 | 711.66
318.15 K, 18340 kPa | 870.66 | 850.43 | 831.3 | 809.76 | 795.29 | 779.35 | 761.37 | 744.57 | 729.42 | 713.3
318.15 K, 20370 kPa | 872.33 | 852.13 | 832.97 | 811.43 | 796.96 | 781.01 | 763.03 | 746.2 | 731.08 | 714.96
318.15 K, 22390 kPa | 873.95 | 853.71 | 834.6 | 813.06 | 798.59 | 782.65 | 764.67 | 747.82 | 732.69 | 716.55
318.15 K, 24420 kPa | 875.54 | 855.32 | 836.2 | 814.65 | 800.17 | 784.23 | 766.24 | 749.39 | 734.25 | 718.09
318.15 K, 26450 kPa | 877.12 | 856.9 | 837.77 | 816.23 | 801.75 | 785.8 | 767.8 | 750.95 | 735.8 | 719.69
318.15 K, 28470 kPa | 878.67 | 858.45 | 839.34 | 817.78 | 803.29 | 787.34 | 769.34 | 752.48 | 737.32 | 721.17
318.15 K, 29490 kPa | 879.43 | 859.22 | 840.08 | 818.54 | 804.05 | 788.09 | 770.08 | 753.23 | 738.07 | 721.87
318.15 K, 30500 kPa | 880.19 | 859.99 | 840.84 | 819.31 | 804.81 | 788.85 | 770.85 | 753.99 | 738.83 | 722.64
318.15 K, 32530 kPa | 881.7 | 861.5 | 842.34 | 820.8 | 806.31 | 790.33 | 772.31 | 755.45 | 740.27 | 724.08
318.15 K, 34550 kPa | 883.17 | 862.97 | 843.8 | 822.26 | 807.75 | 791.8 | 773.76 | 756.87 | 741.69 | 725.5
318.15 K, 36580 kPa | 884.63 | 864.41 | 845.26 | 823.71 | 809.2 | 793.22 | 775.19 | 758.28 | 743.11 | 726.91
318.15 K, 38600 kPa | 886.04 | 865.86 | 846.68 | 825.13 | 810.6 | 794.61 | 776.59 | 759.68 | 744.49 | 728.26
318.15 K, 39620 kPa | 886.76 | 866.55 | 847.39 | 825.83 | 811.31 | 795.32 | 777.27 | 760.4 | 745.19 | –
